Test results taken from US6579881B2 (Eisai Co., Ltd., priority 1997, dated 2003).
Counter-ions that a name gives are not always drawn. Like-named read-outs stand apart in the source and are kept apart here.

Experiments:
serotonin 1A receptor = target: T1, serotonin 1A receptor (Rattus norvegicus, UniProt P19327); assay: Binding test on [3H] 8-hydroxy-dipropylaminotetralin (serotonin 1A receptor); details: [3H] 8-OH-DPAT 0.5 nM, receptor fraction of rat hippocampus; read-out: 5HT1a
T1 construct: To the receptor fraction of the hippocampus were added a test compound and 0.5 nM of [^3H]; 8-hydroxy-dipropylaminotetralin; from tissue; host or cells: SD rat hippocampus, membrane (receptor) fraction
T1 sequence (P19327 1-422): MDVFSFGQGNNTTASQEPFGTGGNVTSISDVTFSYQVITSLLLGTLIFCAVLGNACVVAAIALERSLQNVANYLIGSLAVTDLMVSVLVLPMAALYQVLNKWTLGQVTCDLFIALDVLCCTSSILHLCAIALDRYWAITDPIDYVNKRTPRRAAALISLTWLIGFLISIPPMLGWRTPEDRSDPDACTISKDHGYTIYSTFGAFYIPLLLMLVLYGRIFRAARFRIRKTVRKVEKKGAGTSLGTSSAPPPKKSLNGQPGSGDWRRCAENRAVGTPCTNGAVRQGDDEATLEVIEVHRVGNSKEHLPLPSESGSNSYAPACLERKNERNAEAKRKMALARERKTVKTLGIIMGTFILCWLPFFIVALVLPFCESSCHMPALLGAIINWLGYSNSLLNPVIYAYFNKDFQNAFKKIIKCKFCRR

serotonin 2 receptor = serotonin 2 receptor (Rattus norvegicus, UniProt P14842); assay: Binding test on [3H] ketanserin (serotonin 2 receptor)
serotonin 2 receptor, sequence (P14842 whole entry): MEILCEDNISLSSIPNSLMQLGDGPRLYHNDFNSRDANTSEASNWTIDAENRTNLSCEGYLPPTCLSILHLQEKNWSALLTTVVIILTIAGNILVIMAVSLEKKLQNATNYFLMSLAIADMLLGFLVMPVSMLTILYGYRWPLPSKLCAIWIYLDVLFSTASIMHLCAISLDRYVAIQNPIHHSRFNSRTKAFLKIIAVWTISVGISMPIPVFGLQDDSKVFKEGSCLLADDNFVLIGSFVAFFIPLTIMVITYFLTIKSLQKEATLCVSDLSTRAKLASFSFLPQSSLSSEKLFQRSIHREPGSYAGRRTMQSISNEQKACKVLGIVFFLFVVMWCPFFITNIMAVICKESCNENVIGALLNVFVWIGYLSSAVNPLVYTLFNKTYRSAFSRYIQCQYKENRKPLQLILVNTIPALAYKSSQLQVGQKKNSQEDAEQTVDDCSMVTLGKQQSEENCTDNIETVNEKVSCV

α1 adrenalin receptor = assay: Binding test on [3H] prazosin (α1 adrenalin receptor); parameters: species or system rat
[1] = [3H] ketanserin 0.3 nM, receptor fraction of rat cerebral cortex, read-out: 5HT2
[2] = [3H] prazosin about 0.2 nM, receptor fraction of rat cerebral cortex

Molecule	Ki (serotonin 1A receptor) [nM]	Ki (serotonin 2 receptor; [1]) [nM]	Ki (α1 adrenalin receptor; [2]) [nM]	Ki (α1 adrenalin receptor) [nM]	Ki (serotonin 2 receptor) [nM]
1-[1-(4-fluorophenethyl)piperidin-4-yl]-7-hydroxy-(4a,7a)-cyclohexanoindoline and 1-[1-(4-fluorophenethyl)piperidin-4-yl]-4-hydroxy-(3b,6a)-cyclohexanoindoline [Example 236]	29.2	10.6	72.2		
Cc1nc2sccn2c(=O)c1CCN1CCC(N2CCc3ccccc32)CC1 [Co. No. 5 given in WO96/23784, 1-{1-[2-(5-oxo-7-methyl-5H-pyrimidino[2,1-b][1,3]thiazol-6-yl)ethyl]piperidin-4-yl}indoline, reference compound]			16.8		
Fc1ccc(CCN2CCC(N3CCc4ccccc43)CC2)cc1F [Example 11, 1-[1-(3,4-difluorophenethyl)piperidin-4-yl]indoline]	5.7	27.9	147		
Fc1ccc(CCCN2CCC(N3CCc4ccccc43)CC2)cc1 [Example 13, 1-[1-(4-fluorophenylpropyl)piperidin-4-yl]indoline]	24.2	> 200	188		
COc1cccc(CCN2CCC(N3CCc4ccccc43)CC2)c1 [Example 19, 1-[1-(3-methoxyphenethyl)piperidin-4-yl]indoline]	8.8	7	55.5		
OCCOc1ccc(CCN2CCC(N3CCc4ccccc43)CC2)cc1 [Example 26, 1-{1-[4-(2-hydroxyethoxy)phenethyl]piperidin-4-yl}indoline]	2.9	19.5	51.1		
CS(=O)(=O)NCc1ccc(CCN2CCC(N3CCc4ccccc43)CC2)cc1 [Example 38, 1-[1-(4-methanesulfonylaminomethylphenethyl)piperidin-4-yl]indoline]	15	21.8	244		
c1ccc2c(c1)CCN2C1CCN(CC2COc3ccccc3O2)CC1 (stereo not drawn) [Example 77, 1-{1-[(1,4-benzodioxan-2-yl)methyl]piperidin-4-yl}indoline]	44.5	13.7	249		
COc1cccc(Cc2ccc3c(c2)N(C2CCN(CCc4ccc(F)cc4)CC2)CC3)n1 [Example 187, 1-[1-(4-fluorophenethyl)piperidin-4-yl]-6-[1-(2-methoxypyridin-6-yl)methyl]indoline]	65	5.01	> 200		
CC1CN(C2CCN(CCc3ccc(F)cc3)CC2)c2ccccc21 (stereo not drawn) [Example 216, 1-[1-(4-fluorophenethyl)piperidin-4-yl]-3-methylindoline]	4.7	42.9	81.6		
COc1ccc2c(c1)C(N1CCN(CCc3ccc(F)cc3)CC1)CC2 (stereo not drawn) [Example 250, 1-{4-[2-(4-fluorophenyl)ethyl]piperazin-1-yl}-6-methoxyindan Hydrochloride]	1.6	18.8		263	
Fc1ccc(CCN2CCN(C3CCCc4cnccc43)CC2)cc1 (stereo not drawn) [Example 283, 5-{4-[2-(4-fluorophenyl)ethyl]piperazin-1-yl}-5,6,7,8-tetrahydroisoquinoline Hydrochloride]	39.5	40.9		197	
COc1ccc2c(c1)N(C1CCCN(CCc3ccc(F)cc3)CC1)CC2 (stereo not drawn) [Example 291, 1-[1-(4-fluorophenethyl)homopiperidin-4-yl]-6-methoxyindoline]	6.9	101	172		
COc1ccc2c(c1)N(C1CCN(CCc3ccc(F)cc3)C1)CC2 (stereo not drawn) [Example 292, 1-[1-(4-fluorophenethyl)pyrrolidin-3-yl]-6-methoxyindoline]	92	58.8	178		
O=C(Cc1ccc2ccn(C3CCN(CCc4ccc(F)cc4)CC3)c2c1)N(CCO)CCO [Example 303, 1-[1-(4-fluorophenethyl)piperidin-4-yl]-6-[bis(2-hydroxyethyl)]carbamoylmethylindole Oxalate]	3.6	35.8	307		
NC(=O)CNC(=O)Cc1ccc2ccn(C3CCN(CCc4ccc(F)cc4)CC3)c2c1 [Example 306, 1-[1-(4-fluorophenethyl)piperidin-4-yl]-6-(carbamoylmethyl)carbamoylmethylindole Oxalate]	2.82	3.87	148		
O=C(Cc1ccc2ccn(C3CCN(CCc4ccc(F)cc4)CC3)c2c1)NCCN1CCCC1 [Example 312, 1-[1-(4-fluorophenethyl)piperidin-4-yl]-6-[2-(pyrrolidin-1-yl)ethyl]carbamoylmethylindole Oxalate]	8.27	0.56	53.3		
O=C(Cc1ccc2ccn(C3CCN(CCc4ccc(F)cc4)CC3)c2c1)NCCN1CCOCC1 [Example 313, 1-[1-(4-fluorophenethyl)piperidin-4-yl]-6-[2-(morpholin-4-yl)ethyl]carbamoylmethylindole Oxalate]	13.1	1.58	144		
CN(c1ccc2ccn(C3CCN(CCc4ccc(F)cc4)CC3)c2c1)S(C)(=O)=O [Example 335]	0.22		28.4		> 20
O=C(Cc1ccc2ccn(C3CCN(CCc4ccc(F)cc4)CC3)c2c1)NCC(O)CO (stereo not drawn) [Example 340, 1-[1-(4-fluorophenethyl)piperidin-4-yl]-6-(1,2-dihydroxypropan-3-yl)carbamoylmethylindole Oxalate]	3.02	2.84	340		
O=C(Cc1ccc2ccn(C3CCN(CCc4ccc(F)cc4)CC3)c2c1)NCc1ccccn1 [Example 341, 1-[1-(4-fluorophenethyl)piperidin-4-yl]-6-(pyridin-2-yl)methylcarbamoylmethylindole Oxalate]	2.08	0.67	47.6		

Further lines, with some results ahead:

Ki (serotonin 1A receptor) [nM]	Ki (serotonin 2 receptor; [1]) [nM]	Ki (α1 adrenalin receptor; [2]) [nM]	Molecule	Ki (α1 adrenalin receptor) [nM]	Ki (serotonin 2 receptor) [nM]
0.54	34.1	638	CNOOSCc1ccc2c(c1)N(C1CCN(CCc3ccc(F)cc3)CC1)CC2 [Example 164, 1-[1-(4-fluorophenethyl)piperidin-4-yl]-6-(N-methylsulfamoylmethyl)indoline]		
0.2	14.6	77.8	Nc1nc2cc3c(cc2s1)CCN3C1CCN(CCc2ccc(F)cc2)CC1 [Example 235]		
1.86	21.3	27.9	O=C(Cc1ccc2ccn(C3CCN(CCc4ccc(F)cc4)CC3)c2c1)N1CCCC1 [Example 298, 1-[1-(4-fluorophenethyl)piperidin-4-yl]-6-(tetramethylenecarbamoylmethyl)indole Oxalate]		
0.73	3.84	59.4	N#CCNC(=O)Cc1ccc2ccn(C3CCN(CCc4ccc(F)cc4)CC3)c2c1 [Example 308, 1-[1-(4-fluorophenethyl)piperidin-4-yl]-6-cyanomethylcarbamoylmethylindole Oxalate]		
1.08	46.4	85	CCNC(=O)CCc1ccc2ccn(C3CCN(CCc4ccc(F)cc4)CC3)c2c1 [Example 311, 1-[1-(4-fluorophenethyl)piperidin-4-yl]-6-[2-(ethylcarbamoyl)ethyl]indole Oxalate]		
0.72	1.1	51.3	O=C(Cc1ccc2ccn(C3CCN(CCc4ccc(F)cc4)CC3)c2c1)NCc1ccncc1 [Example 314, 1-[1-(4-fluorophenethyl)piperidin-4-yl]-6-(pyridin-4-yl)methylcarbamoylmethylindole]		
0.76	> 20	400	COc1ccc(C(=O)c2ccc3ccn(C4CCN(CCc5ccc(F)cc5)CC4)c3c2)cn1 [Example 317, 1-[1-(4-fluorophenethyl)piperidin-4-yl]-6-(2-methoxypyridin-5-ylcarbonyl)indole Oxalate]		
1.49	8.3	46.6	COc1ccc(C(O)c2ccc3ccn(C4CCN(CCc5ccc(F)cc5)CC4)c3c2)cn1 (stereo not drawn) [Example 318, 1-[1-(4-fluorophenethyl)piperidin-4-yl]-6-[(2-methoxypyridin-5-yl)hydroxymethyl]indole Oxalate]		
0.56	24.5	42.5	CCC(O)c1ccc2ccn(C3CCN(CCc4ccc(F)cc4)CC3)c2c1 (stereo not drawn) [Example 319, 1-[1-(4-fluorophenethyl)piperidin-4-yl]-6-(1-hydroxyproyl)indole Oxalate]		
0.4	> 20	167	O=S1(=O)CCCN1Cc1ccc2ccn(C3CCN(CCc4ccc(F)cc4)CC3)c2c1 [Example 326, 1-[1-(4-fluorophenethyl)piperidin-4-yl]-6-(1,3-propanesultam-2-yl)methylindole]		
2.06	2.41	149	O=C(CCCO)NCc1ccc2ccn(C3CCN(CCc4ccc(F)cc4)CC3)c2c1 [Example 329, 1-[1-(4-fluorophenethyl)piperidin-4-yl]-6-(4-hydroxybutyroylamidomethyl)indole Oxalate]		
0.38	1.3		CC(=O)NCc1ccc2ccn(C3CCN(CCc4ccc(F)cc4F)CC3)c2c1 [Example 357, 1-[1-(2,4-difluorophenethyl)piperidin-4-yl]-6-acetamidomethylindole]		
